Laboratory results reported in US12441727B2, “Tricyclic compounds as inhibitors of KRAS” (Incyte Corporation, priority 2021, dated 2025).
Like-named read-outs stand apart in the source and are kept apart here.

Experiments:
KRAS_G12C pERK = experiment: Cellular pERK HTRF assay (KRAS_G12C pERK assay); type: cell-based, human; details: KRAS G12C cells, 4 hours incubation with compound, read-out: G12C_pERK
Procedure: MIA PaCa-2 (KRAS G12C; ATCC® CRL-1420), NCI-H358 (KRAS G12C; ATCC® CRL-5807), A427 (KRAS G12D; ATCC® HTB53), HPAFII (KRAS G12D; ATCC® CRL-1997), YAPC (KRAS G12V; DSMZ ACC382), SW480 (KRAS G12V; ATCC® CRL-228) and NCI-H838 (KRAS WT; ATCC® CRL-5844) cells are purchased from ATCC and maintained in RPMI 1640 media supplemented with 10% FBS (Gibco/Life Technologies). The cells are plated at 5000 cells per well (8 uL) into Greiner 384-well low volume, flat-bottom, and tissue culture treated white plates and incubated overnight at […], 5% CO2. The next morning, test compound stock solutions are diluted in media at 3× the final concentration and 4 uL are added to the cells, with a final concentration of 0.1% of DMSO. The cells are incubated with the test compounds for 4 hours (G12C and G12V) or 2 hrs (G12D) at 37° C., 5% CO2. Four uL of 4× lysis buffer with blocking reagent (Cisbio) are added to each well and plates are rotated gently (300 rpm) for 30 minutes at room temperature. Four uL per well of Cisbio anti Phospho-ERK 1/2 d2 is mixed with anti Phospho-ERK 1/2 Cryptate (1:1), and added to each well, incubated overnight in the dark at room temperature. Plates are read on the Pherastar plate reader at 665 nm and 620 nm wavelengths. Data are analyzed in Genedata Screener using SmartFit for IC50 values.

KRAS G12C = KRAS G12C (Homo sapiens, UniProt P01116, G12C); experiment: GDP-GTP exchange assay (KRAS_G12C exchange assay); type: biochemical; details: bodipy-loaded KRAS G12C 2.5 nM, SOS1 150 nM, 2 hours pre-incubation with inhibitor; read-out: G12C_exchange
Chain of KRAS G12C (P01116 1-188 isoform P01116-2 G12C): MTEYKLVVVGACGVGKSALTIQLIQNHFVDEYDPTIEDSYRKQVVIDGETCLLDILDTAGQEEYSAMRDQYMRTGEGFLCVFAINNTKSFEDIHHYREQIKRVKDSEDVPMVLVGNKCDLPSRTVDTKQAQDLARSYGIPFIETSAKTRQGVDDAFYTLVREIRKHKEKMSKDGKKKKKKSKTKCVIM
Procedure: The inhibitor potency of the exemplified compounds was determined in a fluorescence based guanine nucleotide exchange assay, which measures the exchange of bodipy-GDP (fluorescently labeled GDP) for GppNHp (Non-hydrolyzable GTP analog) to generate the active state of KRAS in the presence of SOS1 (guanine nucleotide exchange factor). Inhibitors were serially diluted in DMSO and a volume of 0.1 μL was transferred to the wells of a black low volume 384-well plate. 5 μL/well volume of bodipy-loaded KRAS G12C diluted to 5 nM in assay buffer (25 mM Hepes pH 7.5, 50 mM NaCl, 10 mM MgCl2 and 0.01% Brij-35) was added to the plate and pre-incubated with inhibitor for 2 hours at ambient temperature. Appropriate controls (enzyme with no inhibitor or with a G12C inhibitor (AMG-510)) were included on the plate. The exchange was initiated by the addition of a 5 μL/well volume containing 1 mM GppNHp and 300 nM SOS1 in assay buffer. The 10 μL/well reaction concentration of the bodipy-loaded KRAS G12C, GppNHp, and SOS1 were 2.5 nM, 500 uM, and 150 nM, respectively. The reaction plates were incubated at ambient temperature for 2 hours, a time estimated for complete GDP-GTP exchange in the absence of inhibitor. For the KRAS G12D and G12V mutants, similar guanine nucleotide exchange assays were used with 2.5 nM as final concentration for the bodipy loaded KRAS proteins and with 4 hours and 3 hours incubation after adding GppNHp-SOS1 mixture for G12D and G12V respectively. A cyclic peptide described to selectively bind G12D mutant (Sakamoto et al., BBRC 484.3 (2017), 605-611) or internal compounds with confirmed binding were used as positive controls in the assay plates. Fluorescence intensities were measured on a PheraStar plate reader instrument (BMG Labtech) with excitation at 485 nm and emission at 520 nm.
Either GraphPad prism or Genedata Screener SmartFit was used to analyze the data. The IC50 values were derived by fitting the data to a four parameter logistic equation producing a sigmoidal dose-response curve with a variable Hill coefficient.

[1] = Human whole blood stability; type: in vitro ADME; details: percent remaining at 4 hr, 1 μM, 37° C.
Procedure: The whole blood stability of the exemplified compounds was determined by LC-MS/MS. The 96-Well Flexi-Tier™ Block (Analytical Sales & Services, Inc, Flanders, NJ) is used for the incubation plate containing 1.0 mL glass vials with 0.5 mL of blood per vial (pooled gender, human whole blood sourced from BIOIVT, Hicksville, NY or similar). Blood is pre-warmed in water bath to 37° C. for 30 minutes. 96-deep well analysis plate is prepared with the addition of 100 μL ultrapure water/well. 50 μL chilled ultrapure water/well is added to 96-deep well sample collection plate and covered with a sealing mat. 1 μL of 0.5 mM compound working solution (DMSO:water) is added to the blood in incubation plate to reach final concentrations of 1 μM, mixed by pipetting thoroughly and 50 μL is transferred 50 into the T=0 wells of the sample collection plate. Blood is allowed to sit in the water for 2 minutes and then 400 μL stop solution/well is added (acetonitrile containing an internal standard). The incubation plate is placed in the Incu-Shaker CO2 Mini incubator (Benchmark Scientific, Sayreville, NJ) at 37° C. with shaking at 150 rpm. At 1, 2 and 4-hr, the blood samples are mixed thoroughly by pipetting and 50 μL is transferred into the corresponding wells of the sample collection plate. Blood is allowed to sit in the water for 2 minutes and then 400 μL of stop solution/well is added. The collection plate is sealed and vortexed at 1700 rpm for 3 minutes (VX-2500 Multi-Tube Vortexer, VWR International, Radnor, PA), and samples are then centrifuged in the collection plate at 3500 rpm for 10 minutes (Allegra X-14R Centrifuge Beckman Coulter, Indianapolis, IN). 100 μL of supernatant/well is transferred from the sample collection plate into the corresponding wells of the analysis plate. The final plate is vortexed at 1700 rpm for 1 minute and analyze samples by LC-MS/MS. The peak area ratio of the 1, 2, and 4 hr samples relative to T=0 is used to determine the percent remaining. The natural log of the percent remaining versus time is used determine a slope to calculate the compounds half-life in blood (t1/2=0.693/slope).

[2] = test system: KRAS_G12C pERK in MIA PaCa-2 cells; experiment: Whole Blood pERK1/2 HTRF assay (KRAS_G12C WB pERK assay); type: cell-based, human; details: compound in whole blood, 4 hours, read-out: G12C_WB_pERK
Procedure: MIA PaCa-2 cells (KRAS G12C; ATCC® CRL-1420), HPAF-II (KRAS G12D; ATCC® CRL-1997) and YAPC (KRAS G12V; DSMZ ACC382) are maintained in RPMI 1640 with 10% FBS (Gibco/Life Technologies). For MIA PaCa-2 assay, cells are seeded into 96 well tissue culture plates (Corning #3596) at 25000 cells per well in 100 uL media and cultured for 2 days at 37° C., 5% CO2 before the assay. For HPAF-II and YAPC assay, cells are seeded in 96 well tissue culture plates at 50000 cells per well in 100 uL media and cultured for 1 day before the assay. Whole Blood are added to the 1 uL dots of compounds (prepared in DMSO) in 96 well plates and mixed gently by pipetting up and down so that the concentration of the compound in blood is 1× of desired concentration, in 0.5% DMSO. The media is aspirated from the cells and 50 uL per well of whole blood with test compound is added and incubated for 4 hours for MIA PaCa and YAPC assay; or 2 hours for HPAF-II assay, respectively at 37° C., 5% CO2. After dumping the blood, the plates are gently washed twice by adding PBS to the side of the wells and dumping the PBS from the plate onto a paper towel, tapping the plate to drain well. Fifty ul/well of 1× lysis buffer #1 (Cisbio) with blocking reagent (Cisbio) and Benzonase nuclease (Sigma Cat #E1014-5KU, 1:10000 final concentration) is then added and incubated at room temperature for 30 minutes with shaking (250 rpm). Following lysis, 16 uL of lysate is transferred into 384-well Greiner small volume white plate using an Assist Plus (Integra Biosciences, NH). Four uL of 1:1 mixture of anti Phospho-ERK 1/2 d2 and anti Phospho-ERK 1/2 Cryptate (Cisbio) is added to the wells using the Assist Plus and incubated at room temperature overnight in the dark. Plates are read on the Pherastar plate reader at 665 nm and 620 nm wavelengths. Data are analyzed in Genedata Screener using SmartFit for IC50 values.

Structure (SMILES) | IC50 (KRAS_G12C pERK; Homo sapiens, 4 h) | IC50 (KRAS G12C) | Human whole blood stability at 4 hr [1] | IC50 ([2]; Homo sapiens) | IC50 (KRAS_G12C pERK) | IC50 [2]
C=C(F)C(=O)N1CC[C@H](n2nnc3c(O[C@@H](C)[C@@H]4CCCN4C)nc4c(F)c(-c5c(F)ccc6cccnc56)c(C)cc4c32)C[C@H]1CC#N (single isomer, unassigned) [Example 27b] | – | ≤ 50 nM | – | – | ≤ 50 nM | 50 to 100 nM
COC/C=C/C(=O)N1CC[C@H](n2nnc3c(O[C@@H](C)[C@@H]4CCCN4C)nc4c(F)c(-c5c(F)cccc5OC)c(C)cc4c32)C[C@H]1CC#N (single isomer, unassigned) [Example 34b] | – | ≤ 50 nM | ††† (WBS >90%) | ≤ 50 nM | – | –
COC/C=C/C(=O)N1CC[C@H](n2nnc3c(N4CC(C)(N(C)C)C4)nc4c(F)c(-c5cccc(C)c5C)c(C)cc4c32)C[C@H]1CC#N [Example 6, 2-((2S,4S)-4-(4-(3-(dimethylamino)-3-methylazetidin-1-yl)-7-(2,3-dimethylphenyl)-6-fluoro-8-methyl-1H-[1,2,3]triazolo[4,5-c]quinolin-1-yl)-1-((E)-4-methoxybut-2-enoyl)piperidin-2-yl)acetonitrile] | ≤ 50 nM | ≤ 50 nM | – | 100 to 1000 nM | – | –
COC/C=C/C(=O)N1CC[C@H](n2nnc3c(O[C@@H](C)[C@@H]4CCCN4C)nc4c(F)c(-c5nn(C)c6ccccc56)c(C)cc4c32)C[C@H]1CC#N [Example 9, 2-((2S,4S)-4-(6-fluoro-8-methyl-7-(1-methyl-1H-indazol-3-yl)-4-((S)-1-((S)-1-methylpyrrolidin-2-yl)ethoxy)-1H-[1,2,3]triazolo[4,5-c]quinolin-1-yl)-1-((E)-4-methoxybut-2-enoyl)piperidin-2-yl)acetonitrile] | ≤ 50 nM | ≤ 50 nM | – | ≤ 50 nM | – | –
C=C(F)C(=O)N1CC[C@H](n2nnc3c(O[C@@H](C)[C@@H]4CCCN4C)nc4c(F)c(-c5ncc(F)c6ccccc56)c(C)cc4c32)C[C@H]1CC#N [Example 22, 2-((2S,4S)-4-(6-fluoro-7-(4-fluoroisoquinolin-1-yl)-8-methyl-4-((S)-1-((S)-1-methylpyrrolidin-2-yl)ethoxy)-1H-[1,2,3]triazolo[4,5-c]quinolin-1-yl)-1-(2-fluoroacryloyl)piperidin-2-yl)acetonitrile] | ≤ 50 nM | ≤ 50 nM | – | ≤ 50 nM | – | –

Second part, the compound after the results:

IC50 (KRAS_G12C pERK; Homo sapiens, 4 h) | IC50 (KRAS G12C) | Human whole blood stability at 4 hr [1] | IC50 ([2]; Homo sapiens) | IC50 (KRAS_G12C pERK) | IC50 [2] | Structure (SMILES)
≤ 50 nM | ≤ 50 nM | ††† (WBS >90%) | ≤ 50 nM | – | – | CN(C)C1(C)CN(c2nc3c(F)c(-c4ccc(F)c5cccnc45)c(C(F)(F)F)cc3c3c2nnn3[C@H]2CCN(C(=O)/C=C/CF)[C@H](CC#N)C2)C1 (single isomer, unassigned) [Example 1a]
≤ 50 nM | ≤ 50 nM | †† (WBS >70% but ≤90%) | ≤ 50 nM | – | – | COc1c(C)cccc1-c1c(C(F)(F)F)cc2c(nc(N3CC(C)(N(C)C)C3)c3nnn([C@H]4CCN(C(=O)/C=C/CF)[C@H](CC#N)C4)c32)c1F (single isomer, unassigned) [Example 2a]
– | ≤ 50 nM | – | ≤ 50 nM | ≤ 50 nM | – | COC/C=C/C(=O)N1CC[C@H](n2nnc3c(O[C@@H](C)[C@@H]4CCCN4C)nc4c(F)c(-c5c(C)ncc6ccccc56)c(C)cc4c32)C[C@H]1CC#N (single isomer, unassigned) [Example 24b]
≤ 50 nM | ≤ 50 nM | – | 50 to 100 nM | – | – | C=C(F)C(=O)N1CC[C@H](n2nnc3c(O[C@@H](C)[C@@H]4CCCN4C)nc4c(F)c(-c5c(F)ccc6ccc(C)nc56)c(C)cc4c32)C[C@H]1CC#N (single isomer, unassigned) [Example 25a]
≤ 50 nM | ≤ 50 nM | – | 50 to 100 nM | – | – | COC/C=C/C(=O)N1CC[C@H](n2nnc3c(O[C@@H](C)[C@@H]4CCCN4C)nc4c(F)c(-c5cnc(C)c6ccccc56)c(C)cc4c32)C[C@H]1CC#N (single isomer, unassigned) [Example 26a]
≤ 50 nM | ≤ 50 nM | – | 50 to 100 nM | – | – | C=C(F)C(=O)N1CC[C@H](n2nnc3c(O[C@@H](C)[C@@H]4CCCN4C)nc4c(F)c(-c5c(F)ccc6cccnc56)c(C)cc4c32)C[C@H]1CC#N (single isomer, unassigned) [Example 27a]
